Values quoted from earlier work in patent US20210252031A1, “USE OF LACTULOSE IN THE TREATMENT OF AUTISM” (Curemark, LLC, priority 2006, published 2021).

OC[C@H]1O[C@@H](O[C@@H]2[C@@H](CO)OC(O)(CO)[C@H]2O)[C@H](O)[C@@H](O)[C@H]1O (stereo partly drawn) [Lactulose, 4-O-beta-D-galactopyranosyl-D-fructofuranose]
solubility in water: very soluble in water
